“Also recorded” adds a separate entry of the source.
What was measured:
TNF-R1 (p55) = TNF-R1 (p55) morpholino antisense in HUVEC, flow cytometry; format: cell-based, human; conditions: 4 hours
From the text: Morpholino phosphorodiamidate (MF) antisense oligonucleotides are used. Other chemical classes of antisense oligonucleotides that can be substituted for morpholinos include but are not limited to phosphorotioate oligonucleotides, N3′-P5′ phosphoramidate oligonucleotides (NP), locked nucleic acid (LNA), 2′-O-methoxyethyl nucleic acid (MOE), 2′-fluoro-arabinonucleic acid (FANA), peptide nucleic acids (PNA) (reviewed in Toulme, Nature Biotech. 19:17, 2001). In the example in FIG. 18, antisense oligonucleotides for TNF-R1 (p55) (5′-[…]-3′)(SEQ ID NO:1), and the beta-globin control oligo (5′-[…]-3′)(SEQ ID NO:2) (Gene Tools Inc.) are used. The transfection mixture is prepared by mixing […] of stock morpholino (0.5 mM), […], and 4 ml of 200 mM EPEI (Ethoxylated PolyEthylenimine), vortexed, incubated at room temperature for 20 minutes, and then mixed with 3.5 ml of serum-free media to give a final 0.6 μM morpholino concentration. HUVEC cells are plated the day before in 24-well plates at 4-6×10e4 cells/well. Cells are washed once with serum-free media and incubated with 0.4 ml of the morpholino transfection mixture at 37° C. for 3 hours. Morpholino is removed, regular media (Epithelial Growth Media with 2% fetal calf serum, Clonetics) is added and cells allowed to recover overnight. The efficiency of loading of cells with morphino is monitored in cells incubated with a fluorescent morpholino, and is typically essentially 100 percent. HUVEC cells are then treated with either TNF-α (0.5 ng/ml), or IL-1 (1 ng/ml), or media only. After 4 hours, cells are harvested and evaluated for the cell surface expression of ICAM-1 (1), VCAM-1 (2), E-selectin (3), and CD31 (4) by flow cytometry. […] The TNF-R1 antisense specifically blocks induction of ICAM-1 and VCAM-1 by TNF-α, while it has no effect on induction of the same markers by the independent cell surface receptor for IL-1.

HUVEC cells [1] = assay: Optimized inflammatory assay combination: HUVEC treated with IL-1+TNF-α+IFN-γ, readout parameters by cell-based ELISA; set-up: species or system human; conditions: for activity (altered biomap) in the optimized assay combination: HUVEC, TNF-α (5 ng/ml)+IFN-γ (100 ng/ml)+IL-1, 24 hours
Experimental: Primary human umbilical vein endothelial cells (HUVEC) are used. Other cells that may replace HUVEC in the screen include primary microvascular endothelial cells, aortic or arteriolar endothelial cells or endothelial cell lines such as EAhy926 or E6-E7 4-5-2G cells or human telomerase reverse transcriptase-expressing endothelial cells (Simmons, J. Immunol., 148:267, 1992; Rhim, Carcinogenesis 19:673, 1998; Yang, J. Biol. Chem. 274:26141, 1999). 2×10^4 cells/ml are cultured to confluence in EGM-2 (Clonetics). Other media that may replace EGM-2 include EGM (Clonetics) and Ham's F12K medium supplemented with 0.1 mg/ml heparin and 0.03-0.05 mg/ml endothelial cell growth supplement (ECGS) and 10% FBS, or medium M199 (Life Technologies, Inc.) containing 20% fetal bovine serum and 2 ng/ml basic fibroblast growth factor (Jaffe, J. Clin. Invest. 52:2745, 1973; Hoshi, PNAS 81:6413, 1984). The disease environment present in chronic inflammatory diseases, such as Crohn's disease, differs from the normal condition by increased presence of multiple biologically active agents including IL-1, TNF-α, and IFN-γ (Woywodt, 1994; Kakazu, 1999). Other biologically active agents that may be increased in chronic inflammatory disease environments include IL-4, IL-6, IL-8, IL-12, IL-13, IL-18, TGFbeta, and histamine, as well as activated leukocytes and their products (Daig, 1996, Gut 38:216; Woywodt, 1994, Eur. cytokine Netw. 5:387; Kakazu, 1999 Am J. Gastroenterol. 94:2149; Pizarro, 1999, J. Immunol. 162:6829; Monteleone, 1999, J. Immunol. 163:143; […] Enteral Nutr 23:S20; Beck, 1999, […]. Bowel Dis. 5:44). Optimized assay combinations will contain at least two, and preferably three, four or more of these biologically active agents. Concentrations of agents are standard according to the literature, typically at physiologic concentrations. Concentrations may also be determined experimentally as the amount required to saturate the relevant receptor. A useful feature of the present invention is that combinatorial effects of multiple factors are observed over wide ranges of factor concentrations. Based on the factors included in an assay combination, a set of parameters for including in a biomap are selected. The experiments provided in FIG. 1A-1C illustrate the usefulness of the present invention in compound screening applications. […] After 24 hours, cultures are washed and evaluated for the presence of the parameters ICAM-1 (1), VCAM-1 (2), E-selectin (3), IL-8 (4), CD31 (5), HLA-DR (6) and MIG (7) by cell-based ELISA as described (Melrose, J. Immunol. 161:2457, 1998). For this, plates are blocked with 1% Blotto for 1 hr, and treated with primary antibodies (obtained from Pharmingen and Becton Dickinson) at 1 ng/ml for 2 hr. After washing, secondary peroxidase-conjugated anti-mouse IgG antibody (Promega) at 1:2500 is applied for 45 min. After washing, TMB substrate (Kierkegaard & Perry) is added and color developed. Development is stopped by addition of H2SO4 and the absorbance at 450 nm (subtracting the background absorbance at 600 nm) is read with a Molecular Dynamics plate reader. The relative expression levels of each parameter are indicated by the OD at 450 nm shown along the y-axis. The mean+/-SD from triplicate samples is shown. The assay combinations shown in FIG. 1 are useful in screening compounds that modulate TNF-α, IL-1 and IFN-γ signaling pathways, however, compounds must be evaluated separately in all three assay combinations to identify compounds that selectively modulate one or more of these pathways. In addition, compounds that selectively modulate combinatorial effects of these pathways cannot be distinguished. […] Confluent cultures of HUVEC cells are treated with TNF-α (5 ng/ml)+IFN-γ (100 ng/ml)+IL-1 (1 ng/ml) in the presence or absence of neutralizing anti-TNF-α or control antibody (Goat anti-IgG). […] In FIG. 3A, the relative expression of each parameter is shown along the y-axis as average value of the OD measured at 450 nm of triplicate samples. […]

HUVEC cells [2] = assay: Lactate dehydrogenase (LDH) in HUVEC culture supernatants, CytoTox96 assay; format: cell-based, human; conditions: endothelial cell cultures
Experimental: Effect of over-expression of bcl-2 and bcl-xl proteins on a panel of assay combinations. HUVEC cells were transduced with either Bcl-2, Bcl-xL or control empty vector (control). Confluent cultures were treated with either ceramide (10 μm), TNF-α (5 ng/ml), ceramide (10 μm)+TNF-α (5 ng/ml), or media only. After 24 hours, cells were washed and evaluated for the surface expression of ICAM-1 (1), VCAM-1 (2), and MIG (3) by cell-based ELISA performed as described in FIG. 1. Cell supernatants were collected and analyzed for the presence of lactate dehydrogenase LDH (4) by CytoTox96 assay (Promega).
A panel of assay combinations that reproduces aspects of the response of the endothelial cells to inflammatory processes and stimuli enhancing apoptosis is used. […] Endothelial cells cultured under basal conditions display a low level of cell damage as measured by release of cytoplasmic lactate dehydrogenase from cells into the supernatant.

HUVEC cells [3] = assay: HUVEC in basal medium cultured with factor or agent for 24 hours, cell-based ELISA; set-up: species or system human; conditions: HUVEC cultured with the factor/agent for 24 hours, vs basal medium
Experimental: After 24 hours, cultures are washed and evaluated for the presence of the parameters ICAM-1 (1), VCAM-1 (2), E-selectin (3), IL-8 (4), CD31 (5), HLA-DR (6) and MIG (7) by cell-based ELISA as described (Melrose, J. Immunol. 161:2457, 1998). For this, plates are blocked with 1% Blotto for 1 hr, and treated with primary antibodies (obtained from Pharmingen and Becton Dickinson) at 1 ng/ml for 2 hr. After washing, secondary peroxidase-conjugated anti-mouse IgG antibody (Promega) at 1:2500 is applied for 45 min. After washing, TMB substrate (Kierkegaard & Perry) is added and color developed. Development is stopped by addition of H2SO4 and the absorbance at 450 nm (subtracting the background absorbance at 600 nm) is read with a Molecular Dynamics plate reader. The relative expression levels of each parameter are indicated by the OD at 450 nm shown along the y-axis. The mean+/−SD from triplicate samples is shown.
After 24 hours, cultures are washed and evaluated for the presence of the parameters ICAM-1 (1), VCAM-1 (2), E-selectin (3), IL-8 (4), CD31 (5), HLA-DR (6) and MIG (7) by cell-based ELISA performed as described in FIG. 1 and are reported as the OD at 450 nm in FIG. 2. The mean+/−SD from triplicate samples are shown. * indicates p<0.05 comparing results obtained with the two separate conditions.
After 24 hours, cultures are washed and evaluated for the presence of the parameters ICAM-1 (1), VCAM-1 (2), E-selectin (3), IL-8 (4), CD31 (5), HLA-DR (6) and MIG (7) by cell-based ELISA performed as described in FIG. 1 and are reported as the OD at 450 nm. The mean+/−SD from triplicate samples are shown. * indicates p<0.05 comparing results obtained with the two separate conditions.

HUVEC cells [4] = assay: HUVEC assay combinations with single pathway activators (TNF-α, IL-1, IFN-γ or activating antibody to p55), biomaps by cell-based ELISA; set-up: species or system human
Experimental: Confluent cultures of HUVEC cells are treated with TNF-α (5 ng/ml), IFN-γ (100 ng/ml), IL-1 (20 ng/ml), the combination of TNF-α+IFN-γ+IL-1, or media in the presence or absence of Act-anti-p55. After 24 hours, cultures are washed and evaluated for the cell surface expression of ICAM-1 (1), VCAM-1 (2), E-selectin (3), IL-8 (4), and MIG (5) by cell-based ELISA performed as described in FIG. 1. A color-coded representation of the resulting biomaps prepared from the data is shown in FIG. 8, coded as described in FIG. 2B. […]

5′-AGGTCAGGCACGGTGGAGAGGC-3′ (all phosphorodiamidate morpholino (PMO)) [TNF-R1 antisense]
biomap versus control oligo upon treatment with TNF-α (TNF-R1 (p55); 0.6 μM morpholino, TNF-α (0.5 ng/ml)): altered biomap | induction of ICAM-1 by IL-1 (TNF-R1 (p55); IL-1 (1 ng/ml)): no effect | induction of VCAM-1 by IL-1 (TNF-R1 (p55); IL-1 (1 ng/ml)): no effect | induction of ICAM-1 by TNF-α (TNF-R1 (p55); TNF-α (0.5 ng/ml)): blocks | induction of VCAM-1 by TNF-α (TNF-R1 (p55); TNF-α (0.5 ng/ml)): blocks

N#CC(C#N)=Cc1ccc([N+](=O)[O-])c(O)c1 [AG126]
activity (altered biomap) in the optimized assay combination (HUVEC cells [1]): active compounds

CC(Cc1ccc(O)c(O)c1)C(C)Cc1ccc(O)c(O)c1 (stereo not shown) [NHGA, nordihydroguaiaretic acid]
activity (altered biomap) in the optimized assay combination (HUVEC cells [1]): altered biomaps

COc1cccc(-c2cc(=O)c3ccccc3o2)c1N [PD098059]
activity (altered biomap) in the optimized assay combination (HUVEC cells [1]): altered biomaps

S=C(S)N1CCCC1 [PDTC, pyrrolidine dithiocarbamate]
activity (altered biomap) in the optimized assay combination (HUVEC cells [1]): altered biomaps

O=C(NC1=CC(=O)c2ccccc2C1=O)c1ccccc1 [PPM-18]
cellular toxicity at higher concentrations (2-fold) when tested alone (HUVEC cells [1]; 2-fold above PPM-18 2 μM / AG126 25 μM): cellular toxicity | activity (altered biomap) in the optimized assay combination (HUVEC cells [1]): active compounds

ceramide
release of cytoplasmic lactate dehydrogenase into the supernatant (cell damage) vs basal conditions (HUVEC cells [2]): enhanced

B1: IFN-γ: cytokine used as factor (protein)
chain: QDPYVKEAENLKKYFNAGHSDVADNGTLFLGILKNWKEESDRKIMQSQIVSFYFKLFKNFKDDQSIQKSVETIKEDMNVKFFNSNKKKRDDFEKLTNYSVTDLNVQRKAIHELIQVMAELSPAAKTGKRKRSQMLFRGRRASQ
level of HLA-DR (HUVEC cells [3]): increased | level of ICAM-1 (HUVEC cells [3]): increased | level of MIG (HUVEC cells [3]): increased

B2: p55-Fc: recombinant fusion protein containing the extracellular domains of the p55 TNF-α-receptor fused to immunoglobulin Fc domain (protein)
chain: LVPHLGDREKRDSVCPQGKYIHPQNNSICCTKCHKGTYLYNDCPGPGQDTDCRECESGSFTASENHLRHCLSCSKCRKEMGQVEISSCTVDRDTVCGCRKNQYRHYWSENLFQCFNCSLCLNGTVHLSCQEKQNTVCTCHAGFFLRENECVSCSNCKKSLECTKLCLPQIENVKGTEDSGTT
modifications: left off: a dimerising Fc or GST
notes: recombinant fusion protein containing the extracellular domains of the p55 TNF-α-receptor fused to immunoglobulin Fc domain
biomap of cultures containing activating antibody to TNF-α-receptor p55: sensitivity to the agent (HUVEC cells [4]; Act-anti-p55, 24 hours): is sensitive; also recorded: alters | biomap of the assay combination containing IL-1 alone: sensitivity to the agent (HUVEC cells [4]; IL-1, 24 hours): not sensitive | biomap of the assay combination containing TNF-α alone: sensitivity to the agent (HUVEC cells [4]; TNF-α (5 ng/ml), 24 hours): altered; also recorded: is sensitive | activity (altered biomap) in the optimized assay combination (HUVEC cells [1]): active compound

From patent US7912651B2, “Function homology screening” (BioSeek LLC, priority 2000, dated 2011)
